From patent EP2114888B1, “TRICYCLIC COMPOUNDS AND THEIR USE AS GLUCOCORTICOID RECEPTOR MODULATORS” (priority 2007, dated 2008)

Tests used:
[1] = system: Mouse Collagen-induced arthritis (mCIA); test: Traditional mouse collagen-induced arthritis (mCIA) model; format: in vivo, male DBA/J mice; settings: mice
Experimental: Mouse Collagen-induced arthritis is a commonly used chronic, preclinical model of rheumatoid arthritis in which joint swelling and bone destruction occur following immunization with type II collagen. Reduction of disease incidence and severity has been shown previously to be predictive of disease-modification and signs and symptoms mitigation, respectively, in a clinical setting.
In the traditional mCIA model, male DBA/J mice were immunized with 50 µg chick type II collagen (cCII) in complete Freund's adjuvant and then boosted 21 days later with 50 µg cCII in incomplete Freund's adjuvant. Treatment with compounds was initiated on the morning of the boost and continued for 56 days. The effectiveness of treatment was measured by disease incidence (i.e., number of mice showing any sign of disease) and disease severity, both of which were measured twice a week.

[2] = system: house dust mite-induced BAL inflammatory cell influx; test: House dust mite model of asthma; format: in vivo, Mice; settings: p.o., b.i.d., BAL fluid
TNFα = test: LPS-induced serum TNFα suppression, 28-day repeat dose mouse model; format: in vivo, Swiss Webster female mice
Experimental: (§1) The compounds were weighed and suspended in a vehicle of 0.5% methylcellulose/0.025% tween 20 (Sigma-Aldrich, St. Louis, MO). Compound suspensions were homogenized using a Polytron PT-3100 tissue homogenizer to create a very fine suspension and were then sonicated for 10 minutes using a water bath sonicator. Aliquots of each suspension were made for daily dosing at 0.2 ml/dose. Swiss Webster female mice, 10-12 weeks old, 28-29 grams, (Taconic, Germantown, NY) were used in accordance with the guidelines of the Institutional Animal Care and Use Committee and in accordance with NIH guidelines on laboratory animal welfare. Mice were acclimated in the Pfizer animal facility for three to seven days prior to being utilized in a study. […] Each treatment group contained 5-10 mice. To establish a dosing regimen for the studies, a pilot pharmacodynamic time course experiment was conducted to quantify TNFα repression after a single ED80 dose.
(§2) Body weights were measured on the first and last day of each experiment. Blood samples were obtained after three weeks of dosing for a steady-state pharmacokinetic (PK) analysis. To assess compound effects on LPS-induced TNFα, all mice received an intraperitoneal injection of LPS (Salmonella typhosa, L-7895; Sigma-Aldrich, St. Louis,) 2.5 hr after the last dose on day 28. Mice were sacrificed 90 minutes after LPS administration. Serum samples were quantified for osteocalcin and TNFα using the multiplex assays (Linco Research, Inc, St. Charles, MO; Luminex 100, Austin, TX). Samples were diluted 1:20 and the assay was run according to manufacturer's instructions. The osteocalcin standard was purchased separately (Biomedical Technologies Inc., Stoughton, MA). Mice were fasted for 4 hours before serum was collected for TNFα, and osteocalcin levels. For each experiment, outliers were detected by calculating the number of standard deviations from the mean of the group. If the value being examined was more than 2.5 standard deviations from the mean, it was excluded from the rest of the calculations.
(§3) The individual mouse percent inhibition values were fit to a four-parameter logistic model using the dose mean for each group.
(§4) ED50 and ED80 values were obtained for the various endpoints using a four-parameter logistic fit. For compounds which were tested multiple times, ED50 and ED80 values were obtained using four-parameter logistic fits of the combined data from multiple experiments.

osteocalcin = test: Serum osteocalcin suppression, 28-day repeat dose mouse model; settings: in vivo
Experimental: as §1, §2, §3, §4

[3] = as above; settings: in vivo, po
Experimental: as §1, §2, §3, §4

[4] = system: Mouse Collagen-induced arthritis (mCIA); test: Therapeutic mouse collagen-induced arthritis (mCIA) model; format: in vivo, Male DBA/J mice
Description: Mouse Collagen-induced arthritis is a commonly used chronic, preclinical model of rheumatoid arthritis in which joint swelling and bone destruction occur following immunization with type II collagen. Reduction of disease incidence and severity has been shown previously to be predictive of disease-modification and signs and symptoms mitigation, respectively, in a clinical setting. In the therapeutic mCIA model, induction of disease incidence and severity was synchronized via LPS stimulation. Male DBA/J mice were immunized with 100 ug of bovine type II collagen (bCII) on day 0. […] Dosing of compounds was initiated in the therapeutic mode on day 34 and continued through day 49. Different treatments were compared by measuring the decrease in incidence (i.e., resolution of disease) and the decrease in severity of paw swelling over time.

SMILES: Cc1ncccc1NC(=O)c1ccc2c(c1)CC[C@@H]1C[C@@](O)(C(F)(F)F)CC[C@@]21Cc1ccccc1 [Example 1, (4βS,7R,8αR)-4β-benzyl-7-hydroxy-N-(2-methylpyridin-3-yl)-7-(trifluoromethyl)-4β,5,6,7,8,8α,9,10-octahydrophenanthrene-2-carboxamide]
- Disease incidence (traditional mCIA) EAUC50 (AUC 0-4 hr) [1]: 0.04 µg·h/mL
- Disease incidence (traditional mCIA) EAUC80 (AUC 0-4 hr) [1]: 0.10 µg·h/mL
- Eosinophils (% inhibition) ([2]; 0.1 mg/kg): 42%
- Lymphocytes (% inhibition) ([2]; 0.1 mg/kg): 34%
- Neutrophils (% inhibition) ([2]; 0.1 mg/kg): 29%
- T-cells (% inhibition) ([2]; 0.1 mg/kg): 39%
- Total cells (% inhibition) ([2]; 0.1 mg/kg): 22%
- Eosinophils (% inhibition) ([2]; 1 mg/kg): 97%
- Lymphocytes (% inhibition) ([2]; 1 mg/kg): 94%
- Neutrophils (% inhibition) ([2]; 1 mg/kg): 97%
- T-cells (% inhibition) ([2]; 1 mg/kg): 88%
- Total cells (% inhibition) ([2]; 1 mg/kg): 72%
- Eosinophils (% inhibition) ([2]; 10 mg/kg): 99%
- Lymphocytes (% inhibition) ([2]; 10 mg/kg): 97%
- Neutrophils (% inhibition) ([2]; 10 mg/kg): 100%
- T-cells (% inhibition) ([2]; 10 mg/kg): 96%
- Total cells (% inhibition) ([2]; 10 mg/kg): 83%
- ED50 (TNFα; Mus musculus, 672 h, oral gavage, 28 days, LPS-induced serum TNFα): 0.46 mg/kg
- ED80 (TNFα; Mus musculus, 672 h, oral gavage, 28 days, LPS-induced serum TNFα, read-out: TNFα Suppression (ED80 dose)): 1.82 mg/kg
- Serum TNFα EAUC50 (AUC 0-4 hr) (TNFα; mice): 0.22 µg·h/mL
- Serum TNFα EAUC80 (AUC 0-4 hr) (TNFα; mice): 0.33 µg·h/mL
- Serum osteocalcin EAUC50 (AUC 0-4 hr) (osteocalcin): 1300 ng·h/mL
- Serum osteocalcin EAUC80 (AUC 0-4 hr) (osteocalcin): 4200 ng·h/mL
- Osteocalcin Suppression (ED80 dose) (osteocalcin; po): >10 mg/kg
- ED50 [3]: 2.91 mg/kg
- ED80 ([4]; Mus musculus, dosing day 34 through day 49, read-out: Therapeutic mCIA (ED80 dose)): 1.5 mg/kg
- Therapeutic mCIA (ED50 dose) ([4]; dosing day 34 through day 49, listed as Example 1 free base): 0.4 mg/kg
- Disease severity (therapeutic mCIA) EAUC50 (AUC 0-4 hr) ([4]; mice): 0.09 µg·h/mL
- Disease severity (therapeutic mCIA) EAUC80 (AUC 0-4 hr) ([4]; mice): 0.19 µg·h/mL
